Results reported in US8426447B2, “Spiro-tricyclic ring compounds as beta-secretase modulators and methods of use” (Amgen Inc., priority 2008, dated 2013).

Key:
BACE1 [1] = target: T1, BACE1 (Homo sapiens, UniProt P56817); test: In Vitro Enzymatic BACE FRET (Fluorescence Resonance Energy Transfer) Assay; type: biochemical; details: read-out: BACE1 FRET assay
In short: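 Buffer 0.05 M acetate pH 4.2 with 10% DMSO final and 100 uM genapol; reaction started with 50 nM FRET peptide substrate (fluorophore/quencher flanking BACE cleavage site), incubated one hour. Stopped with Tris buffer raising pH to neutrality, then fluorescence read.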

BACE1 [2] = target: T1, BACE1; test: In Vitro BACE Cell-based Assay (HEK cell assay): Aβ40 in conditioned medium of cells stably expressing Amyloid Precursor Protein, sandwich ELISA; details: read-out: HEK cell assay
In short: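 Conditioned medium Aβ40 by ELISA: pAb40 capture 3 h 4° C., biotin-6E10 detection 2 h 4° C., Streptavidin-Europium TRF. IC50 fitted from % control.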

[3] = in vitro BACE FRET enzyme assay, IC50 class symbols
[4] = HEK cell-based assay, Aβ40 in conditioned medium, IC50 class symbols

T1 sequence (P56817 46-501, species assumed): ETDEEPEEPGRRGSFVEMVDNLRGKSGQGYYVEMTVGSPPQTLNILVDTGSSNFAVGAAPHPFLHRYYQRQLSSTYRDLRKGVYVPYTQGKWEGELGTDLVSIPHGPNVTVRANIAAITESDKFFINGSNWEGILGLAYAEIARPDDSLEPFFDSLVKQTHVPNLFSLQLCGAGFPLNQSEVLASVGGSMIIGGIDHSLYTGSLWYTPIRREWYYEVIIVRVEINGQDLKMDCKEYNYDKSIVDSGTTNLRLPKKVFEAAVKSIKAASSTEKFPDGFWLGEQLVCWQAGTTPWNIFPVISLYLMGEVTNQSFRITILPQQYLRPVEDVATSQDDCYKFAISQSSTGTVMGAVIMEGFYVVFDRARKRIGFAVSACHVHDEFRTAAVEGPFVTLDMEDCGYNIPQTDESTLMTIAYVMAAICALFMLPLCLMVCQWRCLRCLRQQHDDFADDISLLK

NC1=N[C@@]2(CO1)c1cc(-c3cccnc3F)ccc1Oc1cnc(Cl)cc12 [compound 551]
IC50 (BACE1 [1]; Table IV, class symbols): 0.1 to 1 µM
IC50 (BACE1 [2]; Table IV, class symbols): 0.1 to 1 µM

COc1ccc2c(c1)[C@@]1(N=C(N)O[C@@H]1C)c1cc(-c3cncnc3)ccc1O2 (single isomer, unassigned) [Example 125d]
IC50 (BACE1 [1]; Table III, IC50's in uM ranges): 0.1 to 1 µM
IC50 (BACE1 [2]; Table III, IC50's in uM ranges): 0.1 to 1 µM

NC1=N[C@@]2(CO1)c1cc(-c3cccnc3)ccc1Oc1ccc(N3CCOC4(CC4)C3)cc12 [compound 419]
IC50 (BACE1 [1]): < 0.1 µM
IC50 (BACE1 [2]; HEK cells): < 0.1 µM

NC1=N[C@@]2(CO1)c1cc(Br)ccc1Oc1ccc(-c3cccnc3)cc12 [compound 876]
IC50 (BACE1 [1]; Table IV, class symbols): 0.1 to 1 µM
IC50 (BACE1 [2]; Table IV, class symbols): 1 to 5 µM

COC(=O)/C=C/c1ccc2c(c1)[C@@]1(COC(N)=N1)c1cc(Br)ccc1O2 [compound 950]
IC50 (BACE1 [1]): 1 to 5 µM
IC50 (BACE1 [2]): > 5 µM

NC1=N[C@@]2(CO1)c1cc(-c3cccnc3)ccc1Oc1c(F)cc(OCC(=O)C3CC3)cc12 [compound 387]
IC50 (BACE1 [1]; [3]): < 0.1 µM
IC50 (BACE1 [2]; [4]): < 0.1 µM

CC1(COc2cnc3c(c2)[C@]2(COC(N)=N2)c2cc(-c4c(F)cccc4F)ccc2O3)COC1 [compound 411]
IC50 (BACE1 [1]; [3]): < 0.1 µM
IC50 (BACE1 [2]; [4]): < 0.1 µM

CC1(COc2cnc3c(c2)[C@]2(COC(N)=N2)c2cc(-c4cccc(F)c4F)ccc2O3)COC1 [compound 413]
IC50 (BACE1 [1]; [3]): < 0.1 µM
IC50 (BACE1 [2]; [4]): < 0.1 µM

Cc1cc(-c2ccc3c(n2)[C@]2(COC(N)=N2)c2cc(-c4cccnc4F)ccc2O3)ccn1 [compound 401]
IC50 (BACE1 [1]; [3]): 0.1 to 1 µM
IC50 (BACE1 [2]; [4]): < 0.1 µM

CC(C)(C)COc1ccc2c(c1)[C@]1(COC(N)=N1)c1cc(-c3ccccc3)ccc1O2 [Example 85, (4S)-2′-(2,2-dimethylpropoxy)-7′-phenylspiro[1,3-oxazole-4,9′-xanthen]-2-amine]
IC50 (BACE1 [1]; Table II): < 0.1 µM
IC50 (BACE1 [2]; Table II, Aβ40, 24 h incubation): 1 to 5 µM

Cc1ccc2c(c1)Oc1ccc(-c3ccccc3Cl)cc1C21COC(N)=N1 (stereo not drawn) [Example 29, 2′-(2-chlorophenyl)-6′-methylspiro[1,3-oxazole-4,9′-xanthen]-2-amine]
IC50 (BACE1 [1]; Table 1): > 5 µM
IC50 (BACE1 [2]; Table 1, Aβ40, 24 h incubation): > 5 µM

COC(C)(C)C#Cc1ccc2c(c1)[C@@]1(COC(N)=N1)c1cc(-c3cccnc3)cnc1O2 [208a]
IC50 (BACE1 [1]; Table III, IC50's in uM ranges): 0.1 to 1 µM
IC50 (BACE1 [2]; Table III, IC50's in uM ranges): 0.1 to 1 µM

NC1=N[C@]2(CO1)c1cc(-c3cccnc3)ccc1Oc1cnc(-c3cccnc3)cc12 [compound 954]
IC50 (BACE1 [1]): < 0.1 µM
IC50 (BACE1 [2]): 0.1 to 1 µM

CC(C)(C)COc1ccc2c(c1)[C@]1(COC(N)=N1)c1cc(-c3cccnc3Cl)ccc1O2 [compound 913]
IC50 (BACE1 [1]; Table IV, class symbols): < 0.1 µM
IC50 (BACE1 [2]; Table IV, class symbols): 0.1 to 1 µM

CC(C)(C)COc1ccc2c(c1)[C@@]1(CSC(N)=N1)c1cc(-c3cncnc3)ccc1O2 [compound 721]
IC50 (BACE1 [1]): < 0.1 µM
IC50 (BACE1 [2]): 1 to 5 µM

NC1=N[C@@]2(CO1)c1cc(-c3cccnc3N3CCOCC3)ccc1Oc1cnc(N3CCOCC3)cc12 [compound 336]
IC50 (BACE1 [1]; [3]): < 0.1 µM
IC50 (BACE1 [2]; [4]): 0.1 to 1 µM

COc1ccc2c(c1)[C@]1(N=C(N)O[C@H]1C)c1cc(-c3cncnc3)ccc1O2 (single isomer, unassigned) [Example 125a]
IC50 (BACE1 [1]; Table III, IC50's in uM ranges): > 5 µM
IC50 (BACE1 [2]; Table III, IC50's in uM ranges): > 5 µM

CC(C)(C)COc1ccc2c(c1)[C@]1(CSC(N)=N1)c1cc(-c3cncnc3)ccc1O2 [compound 720]
IC50 (BACE1 [1]): < 0.1 µM
IC50 (BACE1 [2]): < 0.1 µM

NC1=N[C@@]2(CO1)c1cc(-c3cccc(F)c3)ccc1Oc1cnc(-c3cccc(F)c3)cc12 [compound 366]
IC50 (BACE1 [1]; [3]): < 0.1 µM
IC50 (BACE1 [2]; [4]): 0.1 to 1 µM

NC1=N[C@@]2(CO1)c1cc(-c3cccnc3)ccc1Oc1ccc(-c3csc(N4CCCC4)n3)cc12 [compound 624]
IC50 (BACE1 [1]; Table IV, class symbols): 0.1 to 1 µM
IC50 (BACE1 [2]; Table IV, class symbols): 1 to 5 µM

COc1ccc2c(c1)[C@]1(COC(N)=N1)c1cc(NC(=O)C(F)(F)F)ccc1O2 [compound 651]
IC50 (BACE1 [1]; Table IV, class symbols): 0.1 to 1 µM
IC50 (BACE1 [2]; Table IV, class symbols): 1 to 5 µM

CC(C)(C)COc1ccc2c(c1)[C@]1(COC(N)=N1)c1cc(-c3ccc(F)nc3)cnc1O2 [compound 869]
IC50 (BACE1 [1]; Table IV, class symbols): 0.1 to 1 µM
IC50 (BACE1 [2]; Table IV, class symbols): 1 to 5 µM

N#Cc1ccc(-c2cnc3c(c2)[C@]2(COC(N)=N2)c2cc(-c4cncnc4)ccc2O3)cc1 [compound 473]
IC50 (BACE1 [1]): < 0.1 µM
IC50 (BACE1 [2]; HEK cells): < 0.1 µM

NC1=N[C@]2(CO1)c1cc(Br)ccc1Oc1ncccc12 [compound 600]
IC50 (BACE1 [1]; Table IV, class symbols): > 5 µM
IC50 (BACE1 [2]; Table IV, class symbols): > 5 µM

C=C(C)COc1ccc2c(c1)[C@]1(COC(N)=N1)c1cc(-c3cncnc3)ccc1O2 [compound 139]
IC50 (BACE1 [1]; Table III, IC50's in uM ranges): < 0.1 µM
IC50 (BACE1 [2]; Table III, IC50's in uM ranges): < 0.1 µM

NC1=NC2(CO1)c1cc(C3CC3)ccc1Oc1ccc(C3CC3)cc12 [compound 760]
IC50 (BACE1 [1]): 1 to 5 µM
IC50 (BACE1 [2]): 1 to 5 µM

CCCOc1ccc2c(c1)[C@@]1(COC(N)=N1)c1cc(-c3cncnc3)ccc1O2 [Example 11, (4R)-2′-propoxy-7′-(5-pyrimidinyl)spiro[1,3-oxazole-4,9′-xanthen]-2-amine]
IC50 (BACE1 [1]; Table 1): 0.1 to 1 µM
IC50 (BACE1 [2]; Table 1, Aβ40, 24 h incubation): 1 to 5 µM
